Data published in EP0449195B1, “Aminobenzene compounds, their production and use” (Takeda Chemical Industries, Ltd., priority 1990, dated 1991).

Tested on: N18-RE-105 cells
Assay: Protective activity to glutamic acid-induced necrocytosis in N18-RE-105 cells (cell lethal ratio from LDH activity)
Type: cell-based
Settings: glutamic acid (10 mM), cultivation 24 hours after addition, LDH activity in cells and medium, read-out: IC₅₀ (minimum concentrations for depressing cell lethal ratio to not more than 50%), Effect on glutamic acid cytotoxicity (cell lethal ratio)
Experimental: When a high concentration of glutamic acid (1 to 10 mM) is added to N18-RE-105 cells, neocrocytosis caused by oxidative stress due to inhibition of incorporation of cystine into cells is observed [Neuron 2, 1547 (1989); J. Pharmacol. Exp. Ther. 250, 1132 (1989)].
Activity of various compounds against this glutamic acid-induced necrocytosis was studied. About 10,000 cells were inoculated into a culture dish of 35 mm in diameter containing DMEM medium (1 ml). After cultivation for 24 hours, glutamic acid and a compound to be tested were added. After the medium was changed to DMEM mediums containing the compound in various concentrations and then glutamic acid (10 mM) was added. After addition of glutamic acid, cultivation was further continued for 24 hours. Then, surviving cells were collected and […] activity contained in the cells and medium was determined. A cell lethal ratio (%) was calculated according to the following formula: Cell lethal ratio (%) =(LDH activity in medium)/(LDH activity in cells + LDH activity in medium)x 100 [formula] Regarding the typical compounds of the present invention, minimum concentrations for depressing cell lethal ratio to not more than 50% (IC₅₀) is shown in Table 9.

Substance	IC50
4-(4-octylaminophenyloxy)piperidine [Example 45]	5.5 nM
4-[4-(1-phenyldecanylamino)phenyloxy]piperidine [Example 52]	10 nM
